Test system: fibrofatty residua (FFR) from an involuted infantile hemangioma
Type: in vivo, human
Excerpt: A child was referred for treatment of an involuted IH. They were concerned about the visual appearance and the feeling of fullness caused by the significant convexity of the tumor. […] Initial measurement was 0.8 cm high and 7.5 cm wide. Management options including surgical excision and laser treatments were discussed. The patient's parent was apprehensive regarding surgery due to the inherent risks of scarring, nerve damage, infection, bleeding, and tissue necrosis.
As an alternative to these options, the present inventors considered administering DCA to the patient to reduce the protuberance of the mass. The associated risks of DCA administration, as well as off-label use, and lack of pediatric approval were discussed with the patient. Two series of injections were planned.
The site was anesthetized with a topical 40% lidocaine ointment. Following prepping with alcohol, an injection grid modified to overlay the affected tissue was applied. Subsequently, 0.2 mL of DCA concentrated to 2 mg/cm^2 was injected at 1 cm intervals using a total of 4.4 mL, followed by the application of ice packs.
As planned, injections were repeated 3 months later, using an additional 4.2 mL. […] The FFR measured 0.2 cm high and 6.4 cm wide (FIG. 2A-2B). […] Some of the superifical vessels appeared to resolve completely (clinically go away/not visible after treatment) post treatment.

duration of moderate post-injection pain, erythema, bruising, and swelling (female, human, in vivo): 24 to 48 h
skin tension (in vivo): either maintained or enhanced
Structure (SMILES): C[C@H](CCC(=O)O)[C@H]1CC[C@H]2[C@@H]3CC[C@@H]4C[C@H](O)CC[C@]4(C)[C@H]3C[C@H](O)[C@]12C [DCA, 3α,12α-dihydroxy-5β-cholan-24-oic acid]
improvement in visual appearance and degree of protrusion (after two series of intralesional DCA, two months after second injection): significant improvement
improvement after the first treatment (first series, 0.2 mL injections at 1 cm intervals, total 4.4 mL): marginal improvement
tolerability of the procedure (in vivo): tolerated the procedure well
visible superficial vessels and telangiectasias in the FFR (post treatment, some of the vessels, some appeared to resolve completely): decreased in size, caliber, and/or lightened in color
FFR height, final measurement post-treatment (right flank, after two series of intralesional DCA (4.4 mL, then 4.2 mL 3 months later), two months after second injection, baseline 0.8 cm): 0.2 cm
FFR width, final measurement post-treatment (right flank, after two series of intralesional DCA (4.4 mL, then 4.2 mL 3 months later), two months after second injection, baseline 7.5 cm): 6.4 cm

— patent US11554126B2, “Methods of treating residual lesions of vascular anomalies” (Georgetown University, priority 2017, dated 2023)
